# Results reported in patent US9682928B2 (NeuroPro Therapeutics, Inc., priority 2009, dated 2017).
# Entries after “also recorded” stand apart in the source; their conditions may differ.
# What was measured:
# [1] = tested on: adult mice (C57/B16); assay: Mesial temporal lobe epilepsy model (mice), hippocampal discharges; assay type: in vivo, mouse; details: for Cumulative duration of hippocampal discharges / Number of hippocampal discharges: 50 mg/kg for NTP-2014 and NTP-2026, 150 mg/kg for NTP-2024, NTP-2006, NTP-1007, NTP-1003; for Suppression of discharges through 80 minutes post-dose: 25 and 50 mg/kg (NTP-2014), 50 mg/kg (NTP-2026); for Significant decrease in cumulative duration of and total number of hippocampal discharges: dose-response study, mice
# Description: Antiepileptic protocol: Up to eight adult mice (C57/B16) are injected with kainate (1 nmol in 50 nl) and are implanted with a bipolar electrode in the dorsal hippocampus using stereotaxic techniques under general anesthesia. […] Drug conditions are counter-balanced, the animals being used as their own controls. Digital EEG recordings are performed in freely moving animals for 20 min pre-injection and 80 min post-injection. The effects of the injected compound are compared versus vehicle injections and reference period (pre-dose). Upon completion of the experiment, standard histological analysis are performed to verify electrode location, cell losses in CA1, CA3 and hilus, as well as dentate gyrus dispersion. Only animals with all characteristics of MTLE are used in data analysis. […] The results below are normalized to the pre-dose condition for each of the treatment group including DMSO and saline vehicle controls. Doses of test article compounds were 50 mg/kg for NTP-2014 and NTP-2026 and 150 mg/kg for NTP-2024, NTP-2006, NTP-1007, and NTP-1003. Therefore the bumetanide, furosemide, piretanide, azosemide, and torsemide esters and amide analogs described herein may be used in therapeutic methods to treat seizures.
# [2] = tested on: Rat; assay: Cortical spreading depression (rat), IP administration; assay type: in vivo
# [3] = tested on: Rat; assay: MES (Rat); assay type: in vivo
# [4] = tested on: Male Rj: NMRI mice; assay: Formalin paw test (late phase) in the mouse; assay type: in vivo; details: for Antinociception compared to gabapentin (584 μmol/kg; 100 mg/kg): late phase, at highest two doses (NTP-2014, NTP-2024) or highest dose (NTP-2026, Bumetanide)
# Description: The method described herein detects analgesic/anti-inflammatory activity, generally used to test compounds for pain relief, in particular diabetic neuropathy or nociceptive neuropathy. See Wheeler-Aceto, et al. (1991) Psychopharmacology 104: 35-44.
# Mice were given an intraplantar injection of 5% formalin (25 μl) into the posterior left paw. This treatment induces paw licking in control animals. Mice were briefly observed at 1 minute intervals between 15 and 50 minutes after the injection of formalin and the number of occasions that the mice were observed licking the injected paw was recorded. There were 10 mice per group and the test was performed “blind.”
# The experiment included 11 groups. Data was analyzed by comparing treated groups with vehicle control using unpaired Mann-Whitney U tests.
# Gabapentin (100 mg/kg i.p.) administered under the same experimental conditions, was used as reference substance. The experiment included several groups. Data was analyzed by comparing treated groups with vehicle control using unpaired Mann-Whitney U tests.
# [5] = tested on: Male CD-1 mice; assay: 52° C. warm water tail-flick test (acute nociceptive study); assay type: in vivo, mouse; details: for Activity in tail-flick test: all doses starting at 32 mg/kg (NTP-2014) or 56 mg/kg (NTP-2026, NTP-2024); for % Antinociception: A50 not determined
# From the text: Subjects: Male CD-1 (25-35 g, Charles River) were used for all studies. Mice were housed in groups of five in Plexiglas chambers with food and water available ad libitum. All animals were maintained on a 12 hr light/dark cycle (lights on at 7:00 AM) in a temperature- and humidity-controlled animal colony. The health status of the animals used in this study were examined on arrival. Only animals in good health were acclimatized to laboratory conditions and used in the study. The acclimation period to the vivarium was a minimum of 7 days. All animal experiments were performed under an approved protocol in accordance with institutional guidelines and in accordance with the Guide for the Care and Use of Laboratory Animals as adopted and promulgated by the National Institutes of Health.
# Behavioral Testing: Efficacy of the test compounds were assessed using the 52° C. warm water tail-flick test. The latency to the first sign of a rapid tail-flick was taken as the behavioral endpoint (Jannsen, et al. 1963). Each mouse was first tested for baseline latency by immersing its tail in the water and recording the time to response. Mice not responding within 5 seconds were excluded from further testing. Test compounds were then injected and the mice were rested for thermal latencies at 10, 20, 30, 45, 60, 90, 120 and 180 minutes post-injection (if a drug effect dropped below 20% for the group average then the testing was halted for that group). Antinociception was calculated by the following formula: % Antinociception=100×(test latency−control latency)/(10-control latency). A maximum score was assigned (100%) to animals not responding within 10 seconds to avoid tissue damage.
# Preparation of Test Materials: NTP-2014 (m.w. 420.52 for free base; lot number: 004JXS047) was dissolved in 0.2% hydroxypropylmethylcellulose (HPMC) in physiological saline to yield final concentrations of between 3.2 and 10 mg/ml (pH ˜7.4). NTP-2024 (m.w. 433.52 for free base; lot number: 024DGM048) was dissolved in 0.2% HPMC in physiological saline to yield final concentrations of between 5.6 and 18 mg/ml (pH ˜7.4). NTP-2026 (m.w. 462.61 for free base; lot number: 002JRA064) was first dissolved in 100% ETOH (10× solution) and then this stock solution was diluted to final concentrations of 5.6-10 mg/ml using 0.2% HPMC in physiological saline (pH ˜7.4). Final ETOH concentration was approximately 10%. Tween 80 (1-2 drops) was added to all solutions to aid in solubilization of compounds.
# All groups contained n=8-10 mice.
# [6] = i.p. 30 minutes before the test, 50 μmol/kg (NTP-2006 23.9, NTP-2024 21.7, NTP-1007 19.3, NTP-2014 21, NTP-2026 23.1 mg/kg)
# [7] = i.p., 250 μmol/kg (NTP-2006 119, NTP-2024 108, NTP-1007 96.5, NTP-2014 105, NTP-2026 116 mg/kg)
# [8] = i.p., 500 μmol/kg (NTP-2006 239, NTP-2024 217, NTP-1007 193, NTP-2014 210, NTP-2026 231 mg/kg)
Structure (SMILES),Cumulative duration of hippocampal discharges [1],Number of hippocampal discharges [1],Suppression of discharges through 80 minutes post-dose [1],Significant decrease in cumulative duration of and total number of hippocampal discharges [1],"Decrease in pain, Formalin Paw Test (Mice) - Late Phase ([4]; at 50, 250, 500 μmol/kg)","Licking Score (15 to 50 minutes post-formalin injection) % Change from Control [4, 6]","Licking Score (15 to 50 minutes post-formalin injection) % Change from Control [4, 7]","Licking Score (15 to 50 minutes post-formalin injection) % Change from Control [4, 8]",Antinociception compared to gabapentin (584 μmol/kg; 100 mg/kg) [4],Activity in tail-flick test ([5]; mice),"Decrease in pain, Formalin Paw Test (Mice) - Late Phase ([4]; at 250, 500 μmol/kg)",other results
"CCCCN(CCCC)c1cc(C(=O)O)cc(S(N)(=O)=O)c1Oc1ccccc1 [NTP-2014, 3-Aminosulfonyl-5-N,N-dibutylamino-4-phenoxybenzoic acid]",decreased,decreased,"25 and 50 mg/kg, near complete",Dose-response relationship,"Significant decrease in pain at 50 (p < 0.05), 250",−38%,−99%,−90%,much better than gabapentin (584 μmol/kg; 100 mg/kg),effective analgesic effects; also recorded: Significant activity in tail-,–,"Change in CSD events ([2]; 10 mg/kg IP, p < 0.05): −38%; Change in CSD events ([2]; 50 mg/kg IP, p < 0.05): −37%; Change in CSD events ([2]; 75 mg/kg IP, p < 0.05): −47%; Significant adverse events ([3]; 100 mg/kg): seen at 300 mg/kg. No; Toxic effects ([3]; 300 mg/kg): mg/kg. Toxic effects; Rats with complete suppression ([3]; at 4 hr, 100 mg/kg): at 4 hr in 2/3 rats at 100; % anti-nociception relative to high dose morphine ([5]; tail-flick test, mice, without behavioral observations): nociception equal to high"
"CCCCNc1cc(C(=O)O)cc(S(N)(=O)=O)c1Oc1ccccc1 [Bumetanide, reference compound]",–,–,–,–,"Significant decrease in pain at 50 (p < 0.05), 250 (p < 0.01),",–,–,–,"500 (p < 0.001 ) μmol/kg; 18.2, 91.1, 182 mg/kg; better",–,–,"Decrease in CSD events ([2]; 10 and 30 mg/kg, p~0.05): CSD events (~30%) at 10 and 30; Activity in MES ([3]; doses up to 200 mg/kg, no metabolic inhibitor coadministered): No activity at doses up"
"CCCCNc1cc(C(=O)N(C)CCCN(C)C)cc(S(N)(=O)=O)c1Oc1ccccc1 [NTP-2026, N-(3-(Dimethylamino)propyl)-N-methyl 3-Aminosulfonyl-5-N-butylamino-4-phenoxybenzamide]",decreased,decreased,"50 mg/kg, near complete suppression of",Dose-response relationship,–,no effects,−49%,−82%,–,Significant activity in tail-,"Significant decrease in pain at 250 (p < 0.01), 500","Decrease in CSD events ([2]; 10-75 mg/kg, p < 0.05): CSD events (~30-40%) at 10-75; Activity in MES ([3]; 30, 100, 330 mg/kg): No activity at 30, 100,; % Antinociception ([5]; 56 mg/kg): ~25%"
"CCCCNc1cc(C(=O)NN2CCOCC2)cc(S(N)(=O)=O)c1Oc1ccccc1 [NTP-2024, N-Morpholinyl 3-Aminosulfonyl-5-N-butylamino-4-phenoxybenzamide]",decreased,decreased,–,Dose-response relationship,–,−1%,−51%,−41%,"(p < 0.05) μmol/kg; 108, 217 mg/kg; slightly less",Significant activity in tail-,"Significant decrease in pain at 250 (p < 0.01), 500","Decrease in CSD events ([2]; 300 mg/kg, co-administered general metabolic inhibitor (NS)): 32% decrease in CSD events at; Licking Score % Pain Decrease ([4]; 50 μmol/kg i.p.): 1%; Licking Score % Pain Decrease ([4]; 250 μmol/kg i.p.): 51%; Licking Score % Pain Decrease ([4]; 500 μmol/kg i.p.): 41%; Anti-inflammatory and analgesic effects in formalin paw test (FIG. 16) ([4]; 50, 250, 500 μmole/kg): show anti-inflammatory and analgesic effects; % Antinociception ([5]; 180 mg/kg): ~48%"
